Assay results as given in publication PMC9737911 (2022).
Values belong to the compound of their own block, whether it stands above or below them.

How the values were obtained:
[1] = tested on: OT-Bea-4bp (DNA, aptamer) CGATCGGGTGTGGGTGGCGTAAAGGGAGCATCG; assay: fluorescence quenching (FAM/BHQ1 beacon), single concentration; conditions: 120 mM NaCl, 2 mM CaCl2; highest concentration tested 200 nM; no quenching
[2] = tested on: OT-Bea-2bp (DNA, aptamer) ATCGGGTGTGGGTGGCGTAAAGGGAGCAT; assay: as above; conditions: 120 mM NaCl, 20 mM CaCl2; 20 mM Tris-HCl pH 7.5; 50 nM probe, 500 nM OTA; 37% quenching
[3] = tested on: OT-Bea-1bp (DNA, aptamer) TCGGGTGTGGGTGGCGTAAAGGGAGCA; assay: as above; conditions: 120 mM NaCl, 20 mM CaCl2; 20 mM Tris-HCl pH 7.5; 50 nM probe, 500 nM OTA; negligible fluorescence change
[4] = tested on: OT-Bea-3bp (DNA, aptamer) GATCGGGTGTGGGTGGCGTAAAGGGAGCATC; assay: as above; conditions: 120 mM NaCl, 20 mM CaCl2; 20 mM Tris-HCl pH 7.5; 50 nM probe, 500 nM OTA; 41% quenching
[5] = tested on: OT-Bea-4bp (DNA, aptamer) CGATCGGGTGTGGGTGGCGTAAAGGGAGCATCG; assay: fluorescence quenching titration (FAM/BHQ1 beacon); conditions: 120 mM NaCl, 2 mM CaCl2; 20 mM Tris-HCl pH 8.5, 0.1% Tween 20, room temperature, 50 nM probe
[6] = tested on: OT-Bea-5bp (DNA, aptamer) GCGATCGGGTGTGGGTGGCGTAAAGGGAGCATCGC; assay: fluorescence quenching (FAM/BHQ1 beacon), single concentration; conditions: 120 mM NaCl, 20 mM CaCl2; 20 mM Tris-HCl pH 7.5; 50 nM probe, 500 nM OTA; small signal change

SMILES: C[C@@H]1Cc2c(Cl)cc(C(=O)N[C@@H](Cc3ccccc3)C(=O)O)c(O)c2C(=O)O1
binding [2]: yes | binding [3]: weak | binding [4]: yes | Kd [5]: 16 ± 2 nM | binding [6]: yes

SMILES: C[C@@H]1Cc2ccc(C(=O)N[C@@H](Cc3ccccc3)C(=O)O)c(O)c2C(=O)O1
binding [1]: no

Next, values leading:

binding [1]: no
SMILES: CCCC[C@@H](C)[C@@H](OC(=O)C[C@@H](CC(=O)O)C(=O)O)[C@H](C[C@@H](C)C[C@H](O)CCCC[C@@H](O)C[C@H](O)[C@H](C)N)OC(=O)C[C@@H](CC(=O)O)C(=O)O

binding [1]: no
SMILES: CCCC[C@@H](C)[C@@H](OC(=O)C[C@@H](CC(=O)O)C(=O)O)[C@H](C[C@@H](C)CCCCCC[C@@H](O)C[C@H](O)[C@H](C)N)OC(=O)C[C@@H](CC(=O)O)C(=O)O

binding [1]: no
SMILES: C[C@H]1CCCC(=O)CCC/C=C/c2cc(O)cc(O)c2C(=O)O1
